From patent US9187464B2, “TRPV4 antagonists” (GlaxoSmithKline Intellectual Property (No. 2) Limited, priority 2011, dated 2015)

Biological target: T1, human TRPV4 (Homo sapiens, UniProt Q9HBA0)
T1 construct: expressed in transfected cells; host or cells: HEK-293-MSR-II cells transduced with 1% BacMam virus
Experiment: Ligand-gated assay (Fluo4 calcium, FLIPR; inhibition of agonist-induced activation)
Format: cell-based
Settings: HEK-293-MSR-II cells transduced with BacMam human TRPV4; agonist at EC80
In short: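 HEK-293-MSR-II cells BacMam-transduced with human TRPV4, loaded with 2 uM Fluo-4. Compound preincubated 10 min at room temperature in HBSS pH 7.4 plus 0.01% Chaps, then agonist added at its EC80. Inhibition of agonist-evoked calcium rise read on FLIPR; IC50 reported.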

T1 sequence (Q9HBA0 whole entry): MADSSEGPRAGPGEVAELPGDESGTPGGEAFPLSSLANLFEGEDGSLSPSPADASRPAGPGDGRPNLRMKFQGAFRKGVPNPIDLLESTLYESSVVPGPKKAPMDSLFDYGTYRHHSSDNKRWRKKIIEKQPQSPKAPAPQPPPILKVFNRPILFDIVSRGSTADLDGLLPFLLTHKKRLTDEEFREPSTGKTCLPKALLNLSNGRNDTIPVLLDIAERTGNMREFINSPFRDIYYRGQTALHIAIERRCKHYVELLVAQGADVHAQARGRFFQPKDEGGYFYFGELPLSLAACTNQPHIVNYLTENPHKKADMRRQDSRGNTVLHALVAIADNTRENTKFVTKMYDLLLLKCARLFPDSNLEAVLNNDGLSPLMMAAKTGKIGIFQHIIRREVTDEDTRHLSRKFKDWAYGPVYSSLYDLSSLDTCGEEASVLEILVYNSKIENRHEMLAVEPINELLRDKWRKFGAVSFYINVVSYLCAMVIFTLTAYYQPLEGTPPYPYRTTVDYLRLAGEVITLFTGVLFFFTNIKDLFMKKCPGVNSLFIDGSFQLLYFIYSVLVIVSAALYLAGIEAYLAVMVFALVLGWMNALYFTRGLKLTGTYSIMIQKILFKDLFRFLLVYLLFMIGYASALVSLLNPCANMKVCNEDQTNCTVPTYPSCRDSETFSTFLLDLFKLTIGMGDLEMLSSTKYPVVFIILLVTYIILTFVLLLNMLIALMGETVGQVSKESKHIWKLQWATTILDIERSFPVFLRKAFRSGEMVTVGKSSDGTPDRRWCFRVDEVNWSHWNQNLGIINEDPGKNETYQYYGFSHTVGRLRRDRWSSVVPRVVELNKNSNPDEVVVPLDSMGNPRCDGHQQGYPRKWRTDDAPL

IC50 [nM]	SMILES
10 to 50	COc1cc(OC)c(N2C[C@@]3(CCC[C@H](Cn4cnc5ccc(C#N)cc54)C3)OC2=O)cn1 [Example 141, 1-({(5S,7S)-3-[4,6-bis(methyloxy)-3-pyridinyl]-2-oxo-1-oxa-3-azaspiro[4.5]dec-7-yl}methyl)-1H-benzimidazole-6-carbonitrile]
0.1 to 10	CC(C)(F)c1cc(N2C[C@@]3(CCC[C@](C)(Cn4cnc5ccc(C#N)cc54)C3)OC2=O)on1 [Example 39, 1-(((5S,7S)-3-(3-(2-fluoropropan-2-yl)isoxazol-5-yl)-7-methyl-2-oxo-1-oxa-3-azaspiro[4.5]decan-7-yl)methyl)-1H-benzo[d]imidazole-6-carbonitrile]
0.1 to 10	Cc1cc(Cl)ncc1N1C[C@@]2(CCC[C@H](Cn3cnc4ccc(C#N)cc43)C2)OC1=O [Example 120, 1-(((5S,7S)-3-(6-chloro-4-methylpyridin-3-yl)-2-oxo-1-oxa-3-azaspiro[4.5]decan-7-yl)methyl)-1H-benzo[d]imidazole-6-carbonitrile]
0.1 to 10	C[C@]1(Cn2cnc3ccc(C#N)cc32)CCC[C@@]2(CN(c3cnc(C(F)(F)F)nc3)C(=O)O2)C1 [Example 25, 1-(((5S,7S)-7-Methyl-2-oxo-3-(2-(trifluoromethyl)pyrimidin-5-yl)-1-oxa-3-azaspiro[4.5]decan-7-yl)methyl)-1H-benzo[d]imidazole-6-carbonitrile]
0.1 to 10	N#Cc1ccc2ncn(C[C@H]3CCC[C@]4(C3)CN(Cc3cn(-c5cncc(C(F)(F)F)c5)nn3)C(=O)O4)c2c1 [Example 9, 1-{[(5S,7S)-2-Oxo-3-({1-[5-(trifluoromethyl)-3-pyridinyl]-1H-1,2,3-triazol-4-yl}methyl)-1-oxa-3-azaspiro[4.5]dec-7-yl]methyl}-1H-benzimidazole-6-carbonitrile]
10 to 50	CC(C)(C)c1ncc(N2C[C@@]3(CCC[C@H](Cn4cnc5ccc(C#N)cc54)C3)OC2=O)cn1 [Example 116, 1-(((5S,7S)-3-(2-(tert-butyl)pyrimidin-5-yl)-2-oxo-1-oxa-3-azaspiro[4.5]decan-7-yl)methyl)-1H-benzo[d]imidazole-6-carbonitrile]
0.1 to 10	CC(C)(C)c1noc(N2C[C@@]3(CCC[C@](C)(Cn4cnc5ccc(C#N)cc54)C3)OC2=O)c1Br [Example 108, 1-({(5S,7S)-3-[4-bromo-3-(1,1-dimethylethyl)-5-isoxazolyl]-7-methyl-2-oxo-1-oxa-3-azaspiro[4.5]dec-7-yl}methyl)-1H-benzimidazole-6-carbonitrile]
10 to 50	N#Cc1ccc2ncn(C[C@H]3CCC[C@]4(C3)CN(Cc3csc(-c5ccccc5)n3)C(=O)O4)c2c1 [Example 63, 1-({(5S,7S)-2-oxo-3-[(2-phenyl-1,3-thiazol-4-yl)methyl]-1-oxa-3-azaspiro[4.5]dec-7-yl}methyl)-1H-benzimidazole-6-carbonitrile]
0.1 to 10	CCOc1ccc(N2C[C@@]3(CCC[C@](C)(Cn4cnc5ccc(C#N)cc54)C3)OC2=O)cn1 [Example 12, ′1-({(5S,7S)-3-[6-(Ethyloxy)-3-pyridinyl]-7-methyl-2-oxo-1-oxa-3-azaspiro[4.5]dec-7-yl}methyl)-1H-benzimidazole-6-carbonitrile]
10 to 50	CC(C)(OCCOP(C)(C)=O)c1cnc(N2C[C@@]3(CCC[C@](C)(Cn4cnc5ccc(C#N)cc54)C3)OC2=O)cn1 [Example 164, 2-((2-(5-((5S,7S)-7-((6-cyano-1H-benzo[d]imidazol-1-yl)methyl)-7-methyl-2-oxo-1-oxa-3-azaspiro[4.5]decan-3-yl)pyrazin-2-yl)propan-2-yl)oxy)ethyl dimethylphosphinate]
0.1 to 10	CC(C)(CN1C[C@@]2(CCC[C@H](Cn3cnc4ccc(C#N)cc43)C2)OC1=O)c1nc(-c2ccccc2)no1 [Example 75, 1-({(5S,7S)-3-[2-methyl-2-(3-phenyl-1,2,4-oxadiazol-5-yl)propyl]-2-oxo-1-oxa-3-azaspiro[4.5]dec-7-yl}methyl)-1H-benzimidazole-6-carbonitrile]
10 to 50	CC(C)(O)c1ncc(N2C[C@@]3(CCC[C@](C)(Cn4cnc5ccc(C#N)cc54)C3)OC2=O)cn1 [Example 148, 1-(((5S,7S)-3-(2-(2-hydroxypropan-2-yl)pyrimidin-5-yl)-7-methyl-2-oxo-1-oxa-3-azaspiro[4.5]decan-7-yl)methyl)-1H-benzo[d]imidazole-6-carbonitrile]
0.1 to 10	COC(C)c1noc(C(C)(C)CN2C[C@@]3(CCC[C@H](Cn4cnc5ccc(C#N)cc54)C3)OC2=O)n1 (stereo partly drawn) [Example 154, 1-{[(5S,7S)-3-(2-methyl-2-{3-[1-(methyloxy)ethyl]-1,2,4-oxadiazol-5-yl}propyl)-2-oxo-1-oxa-3-azaspiro[4.5]dec-7-yl]methyl}-1H-benzimidazole-6-carbonitrile]
0.1 to 10	CC(C)(C)c1noc(N2C[C@@]3(CCC[C@](C)(Cn4cnc5ccc(C#N)cc54)C3)OC2=O)c1F [Example 44, 1-(((5S,7S)-3-(3-(tert-butyl)-4-fluoroisoxazol-5-yl)-7-methyl-2-oxo-1-oxa-3-azaspiro[4.5]decan-7-yl)methyl)-1H-benzo[d]imidazole-6-carbonitrile]
10 to 50	C=C(C)c1cc(N2C[C@@]3(CCC[C@](C)(Cn4cnc5ccc(C#N)cc54)C3)OC2=O)on1 [Example 56, 1-(((5S,7S)-7-methyl-2-oxo-3-(3-(prop-1-en-2-yl)isoxazol-5-yl)-1-oxa-3-azaspiro[4.5]decan-7-yl)methyl)-1H-benzo[d]imidazole-6-carbonitrile]
0.1 to 10	CC(C)(C)c1cc(N2C[C@@]3(CCC[C@](C)(Cn4cnc5ccc(C#N)cc54)C3)OC2=O)no1 [Example 3, 1-({(5S,7S)-3-[5-(1,1-Dimethylethyl)-3-isoxazolyl]-7-methyl-2-oxo-1-oxa-3-azaspiro[4.5]dec-7-yl}methyl)-1H-benzimidazole-6-carbonitrile]
10 to 50	C[C@]1(Cn2cnc3ccc(C#N)cc32)CCC[C@]2(CN(Cc3cn(-c4ccccc4)nn3)C(=O)O2)C1 [Example 105, 1-({(5R,7S)-7-methyl-2-oxo-3-[(1-phenyl-1H-1,2,3-triazol-4-yl)methyl]-1-oxa-3-azaspiro[4.5]dec-7-yl}methyl)-1H benzimidazole-6-carbonitrile]
0.1 to 10	C[C@]1(Cn2cnc3ccc(C#N)cc32)CCC[C@@]2(CN(Cc3csc4ncccc34)C(=O)O2)C1 (relative stereo) [Example 152, 1-{[(trans)-7-methyl-2-oxo-3-(thieno[2,3-b]pyridin-3-ylmethyl)-1-oxa-3-azaspiro[4.5]dec-7-yl]methyl}-1H-benzimidazole-6-carbonitrile]
10 to 50	C[C@]1(Cn2cnc3ccc(C#N)cc32)CCC[C@@]2(CN(c3ccc(Cl)nc3)C(=O)O2)C1 [Example 18]
0.1 to 10	CCOc1cc(C)c(N2C[C@@]3(CCC[C@H](Cn4cnc5cc(F)c(C#N)cc54)C3)OC2=O)cn1 [Example 125, 1-(((5S,7S)-3-(6-ethoxy-4-methylpyridin-3-yl)-2-oxo-1-oxa-3-azaspiro[4.5]decan-7-yl)methyl)-5-fluoro-1H-benzo[d]imidazole-6-carbonitrile]
0.1 to 10	Cc1ccncc1N1C[C@@]2(CCC[C@](C)(Cn3cnc4ccc(C#N)cc43)C2)OC1=O [Example 146, 1-(((5S,7S)-7-methyl-3-(4-methylpyridin-3-yl)-2-oxo-1-oxa-3-azaspiro[4.5]decan-7-yl)methyl)-1H-benzo[d]imidazole-6-carbonitrile]
